# Experimental data published in patent publication US6933305B2, “Amide compounds and use thereof” (Mitsubishi Pharma Corporation, priority 2000, dated 2005).
# pIC50: −log10 of the molar value. Counter-ions that a name gives are not always drawn.
# Target: T1, human ROCK-1 kinase domain (1 to 477 amino acids) (Homo sapiens, UniProt Q13464)
# T1 construct: a vector that expresses the kinase domain (1 to 477 amino acids) of the ROCK-1 protein; His-Tag (6xHis); made in house; host or cells: Sf9 insect cells, recombinant baculovirus (pBAC-1 vector)
# T1 sequence (Q13464 1-477): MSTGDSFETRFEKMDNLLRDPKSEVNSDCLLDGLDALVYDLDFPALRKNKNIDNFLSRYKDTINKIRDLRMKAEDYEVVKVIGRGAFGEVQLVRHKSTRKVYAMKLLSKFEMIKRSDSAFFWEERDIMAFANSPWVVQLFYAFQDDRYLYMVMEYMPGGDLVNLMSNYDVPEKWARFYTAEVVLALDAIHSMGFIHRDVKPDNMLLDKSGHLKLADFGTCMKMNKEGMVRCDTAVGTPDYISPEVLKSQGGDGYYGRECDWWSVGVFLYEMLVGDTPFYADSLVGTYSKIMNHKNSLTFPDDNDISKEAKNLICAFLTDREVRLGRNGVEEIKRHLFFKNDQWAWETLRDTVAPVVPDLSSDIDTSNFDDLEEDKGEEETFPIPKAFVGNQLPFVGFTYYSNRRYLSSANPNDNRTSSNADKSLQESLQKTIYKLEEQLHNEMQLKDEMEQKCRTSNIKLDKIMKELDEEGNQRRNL
# Assay: Rho kinase inhibitory activity (inhibitory activity on human Rho kinase)
# Format: biochemical
# Details: recombinant His-tagged human ROCK-1 kinase domain, histone substrate, 1 μM [32P]ATP, room temperature 20 min
# Procedure: Rho Kinase Inhibitory Activity (Inhibitory Activity on Human Rho Kinase)
# Human Rho kinase was prepared as follows. Using the following primer prepared based on the human ROCK-1 cDNA sequence reported by Ishizaki et al. (T. Ishizaki et al. EMBO J. 15, 1885-1893, 1996) and Human Placenta cDNA (Clontech, Lot. 7030086) as a template, PCR amplification was carried out.
# The amplified DNA fragment was digested with Sac I and Not I, and inserted into the Sac I/Not I site of a commercially available vector for insect cell expression, pBAC-1 (Novagenn), whereby a […] human ROCK-1 protein expression vector was prepared. […]
# A reaction mixture (total amount 100 μl) containing 20 mM (N-morpholino)propanesulfone acid-NaOH (pH 7.2), 0.1 mg/ml bovine serum albumin, 5 mM dithiothreitol, 10 mM β-glycerophosphoric acid, 50 μM sodium vanadate, 10 mM magnesium chloride, 1 μM [^32P] […] Then, the radioactivity incorporated into the substrate was measured using a liquid scintillation counter. […]
row,Structure (SMILES),pIC50
1,"N[C@H]1CCSc2cc(C(=O)Nc3ccncc3)ccc21 [Example 10, (S)-4-amino-N-(4-pyridyl)thiochromane-7-carboxamide]",7.89

# Test system: not given
# Assay: not given
# Details: not given
row,Structure (SMILES),melting point
1,"NC1CCS(=O)(=O)c2cc(C(=O)Nc3ccncc3)ccc21 (stereo not drawn) (as salt: HCl) (hydrate or solvate) [Example 1, 4-amino-N-(4-pyridyl)thiochromane-7-carboxamide 1,1-dioxide]",> 230 °C (dec.)
2,"N[C@@H]1CCS(=O)(=O)c2cc(C(=O)Nc3ccncc3)ccc21 (as salt: HCl) (hydrate or solvate) [Example 6, (R)-4-amino-N-(4-pyridyl)thiochromane-7-carboxamide 1,1-dioxide]",> 275 °C (dec.)
3,"N[C@@H]1CCS(=O)(=O)c2cc(C(=O)Nc3ccncc3)ccc21 (as salt: HCl) (hydrate or solvate) [Example 7, (R)-4-amino-N-(4-pyridyl)thiochromane-7-carboxamide 1,1-dioxide]",> 250 °C (dec.)
4,"N[C@H]1CCSc2cc(C(=O)Nc3ccncc3)ccc21 (as salt: HCl) (hydrate or solvate) [Example 10, (S)-4-amino-N-(4-pyridyl)thiochromane-7-carboxamide]",> 260 °C (dec.)
5,"NC1CCSc2cc(C(=O)Nc3ccncc3)ccc21 (stereo not drawn) (as salt: HCl) [Example 2, 4-amino-N-(4-pyridyl)thiochromane-7-carboxamide]",> 280 °C (dec.)
